2 compounds from US12653803B2, “TREM2 agonists for the stimulation of microglia and methods of identification” (THE TRANSLATIONAL GENOMICS RESEARCH INSTITUTE, priority 2017, dated 2026) can be followed below.

One test addresses T1, TREM2/TYROBP (Homo sapiens, UniProt Q9NZC2).
T1 construct: stably co-expressing full-length TREM2, full-length TYROBP, and a reporter (e.g., firefly luciferase) driven by NFAT-response elements; expressed in transfected cells; host or cells: BW5147.3 mouse T-lymphocyte cell line, lentiviral transduction (pTYF vectors)
Nature of the test: TREM2/TYROBP/NFAT-Luc luciferase reporter cell line screen (primary screen). The following applies: for stimulation of reporter activity in the TREM2 screening cell line: TREM2/TYROBP/NFAT-Luc cells, positive controls: sphingomyelin at increasing concentrations or 120 μg/mL, PMA (1.5 ng/mL)/Ionomycin (375 nM). Format: cell-based. From the text: (§1) Cell-based reporter assays were developed for identifying TREM2 agonists. A mouse T-lymphocyte cell line, BW5147.3, stably co-expressing full-length TREM2, full-length TYROBP, and a reporter (e.g., firefly luciferase) driven by NFAT-response elements, was established (FIG. 2). The parental BW5147.3 cells have no detectable expression of TREM2 or TYROBP (FIG. 4B) and can be used as a counter screen cell-line to identify false positive compounds that stimulate reporter expression independent of TREM2 and TYROBP. BW5147.3 lymphocytes play a central role in the immune system and have high viability (99-100%) in culture.
TREM2 and TYROBP geneArt double-stranded cDNA strings were synthesized (Life Technologies, Carlsbad, CA) and subcloned into pTYF lentiviral vectors to generate a pLenti expression clone. HEK293HT cells were next transfected using Superfect (Qiagen, Venlo, Netherlands), and viral particles were collected and concentrated. Stable expression of TREM2, TYROBP, and the Cignal Lenti NFAT Reporter (Luc) (Qiagen, Venlo, Netherlands) in BW5147.3 cells was accomplished by transduction in opti-MEM media (Life Technologies, Carlsbad, CA) containing 6 μg/ml Polybrene (Sigma-Aldrich, St. Louis, MO). […]
TREM2/TYROBP-NFAT-Luc cell line for HTS was optimized by testing TREM2-stimulated Luc-reporting as a function of growth medium, agonist concentration, induction time, assay duration, and cell density. […] Firefly luciferase levels were measured by chemiluminescence (Bright-Glo™, Promega, WI). […] The effect of reported TREM2 agonists to be served as positive controls were measured (FIG. 5), and the specific stimulation of our reporter through TREM2 by known ligand sphingomyelin was confirmed (FIG. 5).
The primary screening assay was conducted with a concentration of 5 μM for each of the 2,400 compounds (final 0.05% or 0.1% DMSO (v/v)) with two replicate screens with internal replicates. […] Subsequently, Luciferase activity was measured using Bright-Glo™ (Promega, Madison, WI).

Another test deals with NFAT reporter. Briefly: BW-NFAT-Luc counter screen (NFAT reporter only, no TREM2/TYROBP). The following applies: for stimulation of the NFAT-Luc reporter-only counter screen cell line: NFAT-Luc cells without TREM2/TYROBP, sphingomyelin (120 μg/mL in counter screen). It is filed as cell-based, mouse.
Source text: as §1
A counter screen cell line only expressing the Cignal Lenti NFAT Reporter (luc) was also created in parallel to the reporter (BW-NFAT-Luc cell line). The BW-NFAT-Luc cell line has the same MOI as the TREM2/TYROBP-NFAT-Luc cell line (MOI=20) but without expression of TREM2 or TYROBP.
Transmembrane signaling via TREM2 is accomplished through an ITAM-bearing trans-membrane adaptor protein, TYROBP or DAP12. TREM2 activation leads to the induction of transcription factor NFAT. Activation of TREM2 by ligands leads to the phosphorylation of TYROBP, the activation of the reporter, and quantitative production of luciferase. Previous studies using TREM2/TYROBP/NFAT reporter cell-lines have confirmed the stimulation of NFAT transcription following TREM2 activation. Compounds that directly stimulate NFAT signaling (stimulate luciferase activity in the BW-NFAT-Luc cell line) are eliminated as false positive. Thus, the counter screen with BW-NFAT-Luc cell line eliminates the false positive hits and confirms hits from TREM2/TYROBP cell lines screened.
To eliminate the false positive hits from the primary screen that might directly stimulate NFAT signaling, a counter screen was performed with the initial 27 compounds using the BW-NFAT-Luc cell line alone. […] The primary screen with the TREM2/TYROBP Luciferase reporter cell line identified Tyrphostin AG 538 as a positive hit with a relative luminescence of 16.08 (FIG. 6A). […]
On the technique in general: Counterscreens check selectivity or assay interference.

“Also recorded” adds a separate entry of the source.

T1 sequence (Q9NZC2 19-230, species assumed): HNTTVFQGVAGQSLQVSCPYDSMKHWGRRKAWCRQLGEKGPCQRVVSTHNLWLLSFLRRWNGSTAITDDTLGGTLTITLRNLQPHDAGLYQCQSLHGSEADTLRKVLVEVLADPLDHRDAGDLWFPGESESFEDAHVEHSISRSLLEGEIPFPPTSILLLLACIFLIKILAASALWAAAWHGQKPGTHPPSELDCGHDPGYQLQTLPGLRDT
T1 sequence (O43914 22-113 partner, species assumed): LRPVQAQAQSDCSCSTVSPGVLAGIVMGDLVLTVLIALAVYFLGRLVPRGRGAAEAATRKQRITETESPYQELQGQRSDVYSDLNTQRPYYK

For the compound Sphingomyelin, the “stimulation of reporter activity in the TREM2 screening cell line” value on TREM2/TYROBP is “stimulates; also recorded: similarly positive results”; at TREM2/TYROBP (listed as sphingomyelin) it was “induce reporter activity”. Further, the “stimulation of the NFAT-Luc reporter-only counter screen cell line” value is recorded as “did not show direct stimulation of the NFAT reporter” in the test with NFAT reporter and “did not show any activity” in the test on NFAT reporter (listed as SM).

For `N#C/C(=C\c1ccc(O)c(O)c1)C(=O)c1ccc(O)c(O)c1` [Tyrphostin AG 538], the relative luminescence on TREM2/TYROBP (primary screen, 5 μM, duplicates, 8 h treatment, TREM2/TYROBP/NFAT-Luc reporter cell line, relative to DMSO vehicle) stood at 16.08. Also, in the test with NFAT reporter (NFAT-Luc reporter cell line, 1.5, 3, 6 and 12.5 μM), the “direct stimulation of the NFAT reporter in the counter screen” value is reported as “did not stimulate the NFAT reporter directly”.
